PMC8578629, “Photoactivated cell-killing amino-based flavylium compounds” (Scientific Reports, 2021)
Read-outs that look alike come from different tables or passages of the source.

Assays:
HaCaT cells [1] = assay: Photodynamic therapy mechanism determination with type I/type II quenchers; type: cell-based, human; conditions: compound 50 μΜ, light 6.6 J cm^−2
Experimental: For the determination of the photoactivation mechanism that yielded to cell death, cells were seeded as previously described for the photoactivation assays. […] The incubation proceeded for a time period of 4 h. After this, solutions containing the compounds were removed from cells and fresh medium containing the different quenchers were added to cells. Cells were irradiated for 10 min at an intensity of 50%, at room temperature (making a total energy exposition of 6.6 J cm^−2). The dark treatment was done by placing the plates for 10 min in a dark box at room temperature. After this, the medium was removed and replaced by fresh medium without any additive. The 96 well plates were then placed in an incubator at 37 °C in an atmosphere of 5% CO2 for 24 h. Finally, the Alamar Blue assay was performed to determine cell survival as previously described.

[2] = parameters: method as in doi:10.1016/j.cplett.2017.02.055; conditions: cited from earlier work
HaCaT cells [3] = assay: Reactive oxygen species production (DCF-DA); type: cell-based, human; conditions: 25 μM, 6.6 J cm^−2, versus control cells
Experimental: Cells reactive oxygen species (ROS) production was evaluated following the standard method. Briefly, cells were seed at a density of 4 × 10^4 cells/mL onto 96 well plates and after 24 h the compounds were added at 25 μM (non-toxic concentration) and the same previous procedure for the photoactivation assays was followed. After that, cells were washed twice in Hank’s Buffered Saline Solution (HBSS) and incubated with 100 μL of 50 μM 2′,7′-dichlorodihydrofluorescein diacetate (DCF‐DA) for 30 min in the same previous conditions. For positive control, cells were treated with 100 μM H2O2 for 30 min prior to the addition of DCF-DA. Cells were then washed twice with HBSS and incubated with fresh DMEM medium for 24 h. After this period, the fluorescence intensity at […] (ex/em) was determined in a FlexStation 3 Multi-Mode Microplate Reader.

HaCaT cells [4] = assay: Cellular photoactivation assay (white light or dark, Alamar Blue); type: cell-based, human; conditions: for Dark cytotoxicity to HaCaT cells (in words) / Photoactivation, dark versus white light (in words) / IC50: 4 h incubation; for Dark cytotoxicity to HaCaT cells (in words) / Photoactivation, dark versus white light (in words): 6.25–100 μM applied; for Photoactivation, dark versus white light (in words): white light 6.6 J cm^−2; for IC50: Homo sapiens, HaCaT, concentrations corrected for uptake
Experimental: A white light LED homemade device prototype has 96 LEDs appropriately arranged on a plate of 13 cm length × 8 cm width, with a distance from the microplate surface of 8 cm. The prototype has an irradiance of 21 W m^−2 and a wavelength range of 408–707 nm (Fig. S4).
For the cellular photoactivation assays, the white light source of 21 W m^−2 was used. Briefly, cells were seed at a density of 4 × 10^4 cells/mL onto 96 –well plates and after 24 h the compounds were added to the plates in different concentrations (6.25–100 μM) and incubated for a period of 4 h at 37 °C in an atmosphere of 5% CO2 and in the presence of DMEM with 2% FBS. After this period, the medium with the compounds was removed and fresh medium (DMEM with 2% FBS without phenol red (DMEM_2% FBS_w/o_PR) was added to cells. Following this procedure, cells were submitted to light irradiation, the selected light source at a height of 8 cm, in a chamber designed to ensure the same light quantity for each well during the treatment. Cells were irradiated for 10 min at an intensity of 50%, at room temperature (making a total energy exposition of 6.6 J cm^−2). The dark treatment was prepared by placing the plates for 10 min in a dark box at room temperature. After this, the 96 well plates were placed in an incubator at 37 °C in an atmosphere of 5% CO2 for 24 h. Then, to determine cell survival the Alamar Blue assay was performed as follows: after the 24 h, 20 μL of a solution of Resazurin (0.15 mg mL^−1 in PBS filtered in 0.22 μm filters) were added to each well (making a total volume of 120 μL per well), and the plates were incubated between 4–6 h (until the development of visible color change from violet to pink). The fluorescence intensity of each well was then determined at 560/590 nm (ex/em) (FlexStation 3 Multi-Mode Microplate Reader).

[5] = Molar absorption coefficient (ɛ) at 630 nm; type: physicochemical
Experimental: The molar extinction coefficient or molar absorption (ɛ), of all synthesized pigments was determined in three different solvents (ethanol, methanol and DMSO). For each pigment, in each solvent, a range of concentrations was prepared and then the spectrum of each solution was read. Finally, the respective absorbances (collected at 630 nm) were represented as a function of concentration and the ɛ value was taken from the slope value of the equation curve.

[6] = Fluorescence quantum yield by the absolute method (integrating sphere); type: physicochemical; conditions: in DMSO
Experimental: Based on the absorbance maxima of the different compounds (Fig. S2), the measurement of the quantum yield (QY) of the synthesized flavylium derivatives was performed using a calibrated Quantaurus-QY stand-alone integrating sphere setup C11347-11 (Hamamatsu Photonics, Hamamatsu, Japan) equipped with an integration sphere, a monochromator, a spectrograph, a 150 W xenon light source and a silicon charge coupled device. Each compound was dissolved in DMSO and diluted to ensure an absorbance of 0.1 from the λmax of excitation forward. Each compound was then irradiated at the corresponding wavelength and the absolute quantum yield determined. The fluorescence spectra was also recorded (Fig. S3). For each compound, four independent experiments were performed.

[7] = Maximum absorption wavelength of the flavylium cation; type: physicochemical; conditions: species adsorbed/absorbed in cells
[8] = MTT cytotoxicity assay, keratinocytes; type: cell-based; conditions: human, HaCaT cells (keratinocytes), dark
Experimental: The cytotoxicity of amino-based flavylium compounds to HFF-1 (ATCC Number: SCRC-1041) and HaCaT cells was evaluated using the standard MTT assay. Briefly, cells were seeded at a density of 8 × 10^5 and 4 × 10^4 cells/mL, respectively, in 96-well plate and incubated at 37 °C in a 5% CO2 atmosphere. Cells were allowed to grow for 24 h or until reaching monolayer confluency, and serially diluted compound solutions (6.3–100 µM) were added to the plate wells. The stock solutions of each compound were prepared at 200 mM in DMSO, the maximum % of DMSO in the cells was 0.05%. Then, cells were incubated for 48 h at 37 °C, after which the plate wells were washed once with phosphate buffered saline (PBS, Sigma-Aldrich), followed by addition of a 0.45 mg/mL MTT solution to each well. Crystals were allowed to form for 1.5 h. The reaction was stopped by rejecting the medium followed by the addition of 100 µL of DMSO (Sigma-Aldrich). The absorbance was read at 570 nm in FlexStation 3 Multi-Mode Microplate Reader (Molecular Devices, California, USA).

[9] = white light 6.6 J cm^−2 (10 min), read-out: IC50 of HaCaT cell survival, LIGHT
[10] = 4 h, kept in the dark, read-out: IC50 of HaCaT cell survival, DARK

C=CC1=C(C)c2cc3[nH]c(cc4nc(cc5[nH]c(cc1n2)c(C)c5CCC(=O)O)C(CCC(=O)O)=C4C)c(C)c3C=C [PpIX, protoporphyrin IX, reference compound]
Increase of cell survival with quencher (HaCaT cells [1]; D-mannitol 10 mM (type I)): 27%
Increase of cell survival with quencher (HaCaT cells [1]; L-cysteine 10 mM (type I)): 26%
Increase of cell survival with quencher (HaCaT cells [1]; L-histidine 10 mM (type II)): 42%
Increase of cell survival with quencher (HaCaT cells [1]; sodium azide 10 mM (type II)): 37%
Fluorescence quantum yield [2]: 8.5%
ROS production upon white light irradiation (in words) (HaCaT cells [3]): no significant differences
Dark cytotoxicity to HaCaT cells (in words) (HaCaT cells [4]): no cytotoxic effects in dark conditions
Photoactivation, dark versus white light (in words) (HaCaT cells [4]): effective photoactivation from the three higher concentrations
IC50 (HaCaT cells [4]; [9]): 0.3 µM
Molar absorption coefficient ɛ at 630 nm ([5]; DMSO): 3207 M⁻¹ cm⁻¹

CCN(CC)c1ccc2ccc(-c3ccc(N(C)C)cc3)[o+]c2c1 [7NEt24′NMe2, 7-diethylamino-4′-dimethylamino-benzopyrylium]
Quantum yield of fluorescence (Φf), mean ± SD [6]: 5.83 ± 0.28%
Increase of cell survival with quencher (HaCaT cells [1]; D-mannitol 10 mM (type I)): 6%
Increase of cell survival with quencher (HaCaT cells [1]; L-cysteine 10 mM (type I)): 13%
Increase of cell survival with quencher (HaCaT cells [1]; L-histidine 10 mM (type II)): 44%
Increase of cell survival with quencher (HaCaT cells [1]; sodium azide 10 mM (type II)): 27%
ROS production upon white light irradiation (in words) (HaCaT cells [3]): positive modulation of ROS production
Dark cytotoxicity to HaCaT cells (in words) (HaCaT cells [4]): absence of dark cytotoxicity
Photoactivation, dark versus white light (in words) (HaCaT cells [4]): photoactivation even for low concentrations
IC50 (HaCaT cells [4]; [9]): 0.905 ± 0.231 µM
Cell survival, minimum (HaCaT cells [4]; white light irradiation, highest concentration applied): 38%
Maximum absorption wavelength of the flavylium cation [7]: 596 nm
Molar absorption coefficient ɛ at 630 nm ([5]; DMSO): 11,031 M^−1 cm^−1
Molar absorption coefficient ɛ at 630 nm ([5]; Ethanol): 10,725 M^−1 cm^−1
Molar absorption coefficient ɛ at 630 nm ([5]; Methanol): 8,720 M^−1 cm^−1

CCN(CC)c1ccc2ccc(/C=C/c3ccc(N(C)C)cc3)[o+]c2c1 [7NEt2st4′NMe2, 7-(diethylamino)-2-(4′-dimethylaminostyryl)-benzopyrylium]
Quantum yield of fluorescence (Φf), mean ± SD [6]: 3.40 ± 0.17%
Increase of cell survival with quencher (HaCaT cells [1]; D-mannitol 10 mM (type I)): 22%
Increase of cell survival with quencher (HaCaT cells [1]; L-cysteine 10 mM (type I)): 16%
Increase of cell survival with quencher (HaCaT cells [1]; L-histidine 10 mM (type II)): 46%
Increase of cell survival with quencher (HaCaT cells [1]; sodium azide 10 mM (type II)): 31%
ROS production upon white light irradiation (in words) (HaCaT cells [3]): positive modulation of ROS production
Dark cytotoxicity to HaCaT cells (in words) (HaCaT cells [4]): significant dark cytotoxicity
Photoactivation, dark versus white light (in words) (HaCaT cells [4]): significant photoactivation was found for the last four concentrations
IC50 (HaCaT cells [4]; [10]): 5.11 ± 0.196 µM
IC50 (HaCaT cells [4]; [9]): 1.08 ± 0.13 µM
Maximum absorption wavelength of the flavylium cation [7]: 672 nm
Molar absorption coefficient ɛ at 630 nm ([5]; DMSO): 15,728 M^−1 cm^−1
Molar absorption coefficient ɛ at 630 nm ([5]; Ethanol): 16,281 M^−1 cm^−1
Molar absorption coefficient ɛ at 630 nm ([5]; Methanol): 22,749 M^−1 cm^−1
IC50 at 48 h ([8]; monolayer confluence): 91 ± 0.8 µM
IC50 at 48 h ([8]; proliferation): 35.42 ± 0.02 µM

CCN(CC)c1ccc2ccc(-c3ccc(N)cc3)[o+]c2c1 [7NEt24′NH2, 4′-amino-7-diethylamino-benzopyrylium]
Increase of cell survival with quencher (HaCaT cells [1]; D-mannitol 10 mM (type I)): 14%
Increase of cell survival with quencher (HaCaT cells [1]; L-cysteine 10 mM (type I)): 27%
Increase of cell survival with quencher (HaCaT cells [1]; L-histidine 10 mM (type II)): 33%
Increase of cell survival with quencher (HaCaT cells [1]; sodium azide 10 mM (type II)): 31%
ROS production upon white light irradiation (in words) (HaCaT cells [3]): positive modulation of ROS production
Dark cytotoxicity to HaCaT cells (in words) (HaCaT cells [4]): significant decrease of cell survival
Photoactivation, dark versus white light (in words) (HaCaT cells [4]): potential photo-activation
IC50 (HaCaT cells [4]; [10]): 3 ± 0.734 µM
IC50 (HaCaT cells [4]; [9]): 1.53 ± 0.081 µM
Maximum absorption wavelength of the flavylium cation [7]: 575 nm
Molar absorption coefficient ɛ at 630 nm ([5]; DMSO): 5687 M⁻¹ cm⁻¹
Molar absorption coefficient ɛ at 630 nm ([5]; Ethanol): 2225 M⁻¹ cm⁻¹
Molar absorption coefficient ɛ at 630 nm ([5]; Methanol): 1682 M⁻¹ cm⁻¹
IC50 at 48 h ([8]; monolayer confluence): 29.8 ± 0.8 µM
IC50 at 48 h ([8]; proliferation): 8.9 ± 0.2 µM
